The conditions of series [1]: cited from earlier work.
Series [2] in a line: Pharmacokinetics of orally administered aspirin (literature). The settings on record: extrapolated from linear pharmacokinetics over 30-400 mg.
The nature of series [3]: Gravimetric emitted dose through DPI devices (TwinCaps, RS01) with NGI. It counts as physicochemical. The note with it: 40 L/min, fill weight 60.00 mg. The protocol:
The aerodynamic particle size distributions (APSDs) of the ASA powders were determined by evaluating emitted doses gravimetrically through two DPI devices, the TwinCaps and the RS01, using a Next Generation Impactor (NGI). Flow rates of approximately 40 and 100 L/min provided the 4 kPa pressure drop across the TwinCaps and RS01 devices, respectively, as stipulated by USP <601>, Inhalation and Nasal Drug Products: Aerosol, Sprays, and Powders—Performance Quality Tests.
The TwinCaps DPI was tested (2 actuations) using various loaded doses. Testing was performed to determine the approximate emitted dose from the device based on weight. Each test was performed using a freshly prepared NGI.
The Plastiape RS01 monodose DPI inhaler was also tested using various loaded doses in Size 3 HPMC capsules to determine approximate emitted dose based on the weight.

Series [4] can be described thus: Solubility of aspirin in solvents. It counts as physicochemical. The settings on record: organic solvent or mixture. The text has this: The solubility of aspirin in a number of solvents was first evaluated prior to initiating controlled crystallization by addition of a suitable anti-solvent.
For series [5], the system named is platelet aggregation, platelet thromboxane production, urinary 2,3-dinor-TXB2 excretion. The settings on record: cited from earlier work.
The subject of series [6] is major gastrointestinal and extracranial bleeds. The note with it: oral aspirin; cited from earlier work.
Another series concerns vascular events. The note with it: cited from earlier work.
In the next series the test system is respiratory system. Briefly: Irritation / tolerability on inhalation. It counts as in vivo. From the text:
In addition, particles described herein can be mixed and/or coated with various pharmaceutically acceptable excipients. Excipients can be included in order to improve aerodynamic performance of the active drug, to improve bioavailability, increase stability, to modulate pH, to provide sustained release properties, to provide taste-masking of an irritating drug and/or to improve pharmacokinetic performance. In one embodiment, a dry powder comprises an amount of excipient effective to provide taste-masking of an irritating drug. In terms of suitable formulations for inhalation, not only is particle size important in order to reach a desired region of the respiratory system, but the formulation must be acceptable to patients. […] Consequently, it became necessary to find a suitable excipient in order to mask this property of aspirin.
Aspirin alone may be too irritating and evoke a choking response (e.g., coughing, bronchospasms) when inhaled. […] For example, symptoms of headache and nasal congestion may be alleviated within about 10 seconds, about 15 seconds, about 20 seconds, about 30 seconds, or within about 45 seconds.

Series [7] can be described thus: Solubility of aspirin in anti-solvents / dispersion media. The format is physicochemical. The protocol: After considering a number of factors in the end it was determined that only n-heptane and toluene fulfilled all the requirements, and therefore these were selected for further evaluation. Suspensions of aspirin at 5% w/w were prepared with the various anti-solvents, by charging the required amount of anti-solvent, charging the required amount of aspirin, and then stirring until a homogeneous suspension was obtained. The suspensions were qualitatively evaluated at room temperature and then filtered using a 0.45 μm membrane, which was then placed in an oven and dried at 60° C. until the solvent had completely evaporated. A quantitative analysis was performed on the residue that remained in the membrane by weighing the membrane before and after the test.
5% w/w DSPC was used as it was found from previous work to mitigate irritation when inhaled. Additionally, soy lecithin was also used in the concentration of 0.1% w/w. As aspirin is insoluble in n-hexane, it was selected as a dispersion media for the micronized particles. Also, it has boiling point of 70° C. which is much below the melting point of aspirin (˜135° C.) and therefore, an inlet temperature of 85° C. should remove solvent without affecting the aspirin particles.

Setting [8] is: following administration of ASA.
The mark [9] stands for this setting: after oral administration of ASA.
Setting [10] is: 5% w/w suspension, room temperature, 0.45 μm filtration.

Converted amounts (≈) assume the structure as drawn. Like-named read-outs stand apart in the source and are kept apart here.

As usually defined, the solubility is the concentration that dissolves in the medium under given conditions.

Turning to `O=C(O)c1ccccc1O` [salicylic acid], in series [1] (setting [8]), the elimination half-life is 2 to 3 h and the “period of increasing plasma levels” value was “about 45 minutes”. For the same compound, the “expected peak circulating plasma level” value in [2] is about 10 µg/mL.

`OC[C@H]1O[C@@H](O[C@H]2[C@H](O)[C@@H](O)C(O)O[C@@H]2CO)[C@H](O)[C@@H](O)[C@H]1O` (stereo partly shown) [Lactose, lactose]: in series [3], the “% Emitted (based on fill weight)” value worked out at 94.5% and the “Total Emitted Dose” value is on record as 56.73 mg.

Regarding `CC(=O)Oc1ccccc1C(=O)O` [aspirin, acetylsalicylic acid], the solubility in series [4] (DMF, 23 °C) worked out at 500 mg/mL (≈ 2780 mM); in [4] (PEG-200, 23 °C), 77 mg/mL (≈ 427 mM); in series [4] (THF, 3 °C), 250 mg/mL (≈ 1390 mM); in [4] (THF, 23 °C) it was 500 mg/mL (≈ 2780 mM); in series [4] (acetone, 3 °C), 143 mg/mL (≈ 794 mM); in series [4] (acetone, 23 °C), 200 mg/mL (≈ 1110 mM). In addition, the solubility in series [4] (ethanol, EtOH, 3 °C) worked out at 63 mg/mL (≈ 350 mM); in [4] (ethanol, EtOH, 23 °C) it was 125 mg/mL (≈ 694 mM); in series [4] (methanol, MeOH, 3 °C) it was 133 mg/mL (≈ 738 mM); in series [4] (methanol, MeOH, 23 °C) it was 167 mg/mL (≈ 927 mM). The elimination half-life in series [1] (setting [9]) was 0.25 to 0.333 h. The “time to peak plasma levels” value in series [1] (setting [9]) is reported as “about 20 minutes”. Also, the “fraction of oral dose bioavailable” value in series [1] (oral, first pass effect) is recorded as “one to two-thirds”. The “fraction of oral dosage lost or inactivated by first pass effect” value in series [1] (oral, gut and liver) is “approximately ⅔”. Further, the “inhibition of indices of platelet activation” value in series [5] (40 mg ASA versus 100 mg, healthy human subjects) is on record as “significantly less effective”. In addition, the “inhibition of platelet aggregation, thromboxane production, urinary 2,3-dinor-TXB2 excretion” value in [5] (plain versus enteric-coated 100 mg ASA) was “equally effective”. The “increase of major gastrointestinal and extracranial bleeds” value in series [6] is reported as “over 50%”. Besides, the vascular events prevented in the series on vascular events (Dutch TIA Study, any dose above 30 mg daily) is recorded as 13%. Also, the “risk of stroke or death” value in the series on vascular events (SALT, 75 mg/day, patients with cerebrovascular ischemic events) was “significantly reduces”. Besides, the “irritation / tolerability when inhaled” value with respiratory system is “quite irritating”. Further, in [7] (setting [10]), the Behavior towards n-heptane entry was “phobic behavior”. In addition, the Solubility in toluene result in series [7] (setting [10]) is “partially soluble”. The Solubility in n-hexane result in series [7] (n-hexane) is recorded as “insoluble”.

Source of the values: patent publication US9993488B2, “Dry powder formulations for inhalation” (OtiTopic Inc., priority 2014, dated 2018).
